Reference: the NIST ThermoML archive (doi:10.1016/j.fluid.2008.10.003)
± gives the expanded uncertainty stated by the source.

Assay: isobaric coefficient of expansion
Conditions: calorimetric method

CCCCCCO [hexan-1-ol]
isobaric coefficient of expansion
Conditions | 5000 kPa | 10000 kPa | 15000 kPa | 20000 kPa | 25000 kPa | 30000 kPa | 35000 kPa | 40000 kPa | 45000 kPa | 50000 kPa
278.15 K | 0.000821 ± 3.5e-05 1/K | 0.0008 ± 3.4e-05 1/K | 0.000788 ± 3.3e-05 1/K | 0.000778 ± 3.3e-05 1/K | 0.00076 ± 3.2e-05 1/K | 0.000748 ± 3.2e-05 1/K | 0.000733 ± 3.1e-05 1/K | 0.000723 ± 3.1e-05 1/K | 0.000716 ± 3e-05 1/K | 0.000708 ± 3e-05 1/K
298.15 K | 0.00085 ± 3.6e-05 1/K | 0.000832 ± 3.5e-05 1/K | 0.000812 ± 3.4e-05 1/K | 0.000796 ± 3.4e-05 1/K | 0.00078 ± 3.3e-05 1/K | 0.000764 ± 3.2e-05 1/K | 0.000749 ± 3.2e-05 1/K | 0.000734 ± 3.1e-05 1/K | 0.000724 ± 3.1e-05 1/K | 0.000712 ± 3e-05 1/K
328.15 K | 0.000929 ± 3.9e-05 1/K | 0.0009 ± 3.8e-05 1/K | 0.000876 ± 3.7e-05 1/K | 0.000854 ± 3.6e-05 1/K | 0.000833 ± 3.5e-05 1/K | 0.000813 ± 3.4e-05 1/K | 0.000794 ± 3.4e-05 1/K | 0.000776 ± 3.3e-05 1/K | 0.000759 ± 3.2e-05 1/K | 0.000745 ± 3.2e-05 1/K
348.15 K | 0.000995 ± 4.2e-05 1/K | 0.00096 ± 4.1e-05 1/K | 0.000929 ± 3.9e-05 1/K | 0.000903 ± 3.8e-05 1/K | 0.000875 ± 3.7e-05 1/K | 0.000852 ± 3.6e-05 1/K | 0.000831 ± 3.5e-05 1/K | 0.000808 ± 3.4e-05 1/K | 0.000791 ± 3.4e-05 1/K | 0.000772 ± 3.3e-05 1/K
